The results in this text go back to ChEMBL document CHEMBL1138246, “Ester prodrugs of cyclic 1-(S)-[3-hydroxy-2-(phosphonomethoxy)propyl]-5-azacytosine: synthesis and antiviral activity” (J Med Chem, 2007).

Broadly, the EC50 is the concentration needed to bring the measured effect to its halfway point. A word on the CC50: it is the concentration that lowers cell viability or growth by half.

≈ marks a conversion by molar mass, not a printed value.

The test system of one data set is Human respirovirus 3. Description: Antiviral activity against Parainfluenza 3 in Vero cells reduction of virus-induced cytopathogenicity after 4 days. The class given is functional, organism-based. The note with it: Human respirovirus 3, Vero, 96 h. In general terms: Damage to the host cells serves as the signal in cytopathic effect assays.
For another data set, the system named is HeLa. The data set can be described thus: Cytotoxicity against HeLa cells assessed as alteration in morphology after 3 days. The class given is functional, cell-based. To be noted: Homo sapiens, 72 h.
Data set [1] has as its system Human immunodeficiency virus 2. The class given is functional, organism-based. The note with it: Human immunodeficiency virus 2, ROD, CCRF-CEM, 96 h.
Data set [2] relates to Human immunodeficiency virus 1. The class given is functional, organism-based. The note with it: Human immunodeficiency virus 1, 3B, CCRF-CEM, 96 h.
A further data set deals with Vero. The data set can be described thus: (§1) Cytotoxicity against Vero cells assessed as alteration in morphology after 3 days. The class given is cell-based, Chlorocebus sabaeus. The note with it: Chlorocebus sabaeus, Vero, 72 h.
Data set [3] concerns Human betaherpesvirus 5. The class given is functional, organism-based. To be noted: Human betaherpesvirus 5, AD169, HEL.
Data set [4] in a line: Cytotoxicity against C3H cells assessed as alteration in morphology after 3 days. The class given is cell-based, Mus musculus. To be noted: for MCC at 72 h: mouse, C3H cells.
For data set [5], the system named is Moloney murine sarcoma virus. The note with it: C3H.
The subject of data set [6] is Human alphaherpesvirus 2. The class given is functional, organism-based. To be noted: Human alphaherpesvirus 2, G, HEL.
Data set [7] concerns Coxsackievirus B4. The class given is functional, organism-based. The note with it: Enterovirus B, HeLa.
In data set [8] the test system is Human alphaherpesvirus 2. The class given is functional, organism-based. The note with it: Human alphaherpesvirus 2, Lyons, HEL.
Data set [9] concerns Vesicular stomatitis virus. Description: microbe, parasite or virus in culture. To be noted: HeLa.
The test system of data set [10] is Human betaherpesvirus 5. The class given is functional, organism-based. To be noted: Human betaherpesvirus 5, Davis, HEL.
The test system of data set [11] is Human alphaherpesvirus 3. The class given is functional, organism-based. The note with it: Human alphaherpesvirus 3, OKA, HEL.
A short description of data set [12]: Cytotoxicity against HSB2 cells assessed as alteration in morphology after 3 days. The class given is functional, Homo sapiens, CCRF-HSB-2.
Another data set concerns CCRF-CEM. Description: Cytotoxicity against CEM cells assessed as cell growth after 3 days. The class given is functional. The note with it: Homo sapiens, 72 h.
In a further data set the test system is MOLT-3. The data set can be described thus: Cytotoxicity against MOLT3 cells assessed as alteration in morphology after 3 days. The class given is functional, Homo sapiens.
For another data set, the system named is Human adenovirus 2. The class given is functional, organism-based. The note with it: Human mastadenovirus C, HEL.
Data set [13] deals with Mammalian orthoreovirus 1. The data set can be described thus: Antiviral activity against Reovirus 1 in Vero cells reduction of virus-induced cytopathogenicity after 4 days. The note with it: Mammalian orthoreovirus 1, Vero, 96 h. The class given is functional, organism-based.
In the next data set the test system is Punta Toro virus. The data set can be described thus: Antiviral activity against Punta Toro virus in Vero cells reduction of virus-induced cytopathogenicity after 4 days. To be noted: 96 h. The class given is functional, organism-based.
Data set [14] concerns Coxsackievirus B4. The class given is functional, organism-based. To be noted: Enterovirus B, Vero.
In the next data set the test system is Sindbis virus. Description: Antiviral activity against Sindbis virus in Vero cells reduction of virus-induced cytopathogenicity after 4 days. The class given is functional, organism-based. The note with it: 96 h.
The test system of data set [15] is HEL. The data set can be described thus: Cytotoxicity against HEL cells assessed as cell growth after 3 days. The class given is functional, Homo sapiens.
Data set [16] concerns Vesicular stomatitis virus. Description: microbe, parasite or virus in culture. To be noted: HEL.
Data set [17] deals with Respiratory syncytial virus. The class given is functional, organism-based. The note with it: human respiratory syncytial virus, HeLa.
For data set [18], the system named is HEL. The data set can be described thus: Cytotoxicity against HEL cells assessed as alteration in morphology after 3 days. The class given is functional. To be noted: Homo sapiens, 72 h.
In data set [19] the test system is Human alphaherpesvirus 3. The class given is functional, organism-based. The note with it: Human alphaherpesvirus 3, 07-1, HEL.
Data set [20] in a line: as §1. The class given is cell-based, Chlorocebus sabaeus. The note with it: chlorocebus sabaeus, Vero cells.
[21] abbreviates: Homo sapiens, CCRF-HSB-2, 72 h, read-out: MCC.
[22] abbreviates: Homo sapiens, MOLT-3, 72 h, read-out: MCC.
Where [23] appears, read: Homo sapiens, HEL, 72 h, read-out: CC50.

For the molecule `Nc1ncn(C[C@@H](CO)OCP(=O)(O)O)c(=O)n1`, the EC50 was over 100 µg/mL with Human respirovirus 3; over 100 µg/mL in the data set with HeLa; 20 µg/mL (≈ 71.4 µM) in data set [1]; 20 µg/mL (≈ 71.4 µM) in data set [2]; over 100 µg/mL in the data set on Vero; 0.23 µg/mL (≈ 0.821 µM) in the data set on Human betaherpesvirus 5 [3]. Further, the EC50 is over 20 µg/mL in data set [4] (Mus musculus, C3H, 72 h); at least 4 µg/mL in data set [5]; 0.45 µg/mL (≈ 1.61 µM) with Human alphaherpesvirus 2 [6]; over 100 µg/mL in the data set on Coxsackievirus B4 [7]; 0.24 µg/mL (≈ 0.857 µM) in the data set on Human alphaherpesvirus 2 [8]; over 100 µg/mL in data set [9]. The EC50 is 0.082 µg/mL (≈ 0.293 µM) with Human betaherpesvirus 5 [10]; 0.06 µg/mL (≈ 0.214 µM) in the data set on Human alphaherpesvirus 3 [11]; 0.71 µg/mL (≈ 2.53 µM) in the data set on Human adenovirus 2; over 100 µg/mL in [13]; over 100 µg/mL in the data set on Punta Toro virus; over 100 µg/mL with Coxsackievirus B4 [14]. For the same molecule, the EC50 is over 100 µg/mL in the data set on Sindbis virus, over 100 µg/mL in data set [16], over 100 µg/mL in data set [17] and 0.039 µg/mL (≈ 0.139 µM) with Human alphaherpesvirus 3 [19]. In addition, the values for the MCC (in data set [12] (setting [21]); in the data set on MOLT-3 (setting [22]); in the data set on HEL [18]) were 16 µg/mL, 16 µg/mL and over 100 µg/mL, respectively. For the same molecule, the CC50 is 30 µg/mL (≈ 107 µM) in the data set with CCRF-CEM and 225 µg/mL (≈ 803 µM) in the data set with HEL [15] (setting [23]).

As to `Nc1ncn(C[C@H]2COP(=O)(O)CO2)c(=O)n1`, the EC50 in the data set on Human respirovirus 3 was over 200 µg/mL; in the data set with Human betaherpesvirus 5 [3], 0.07 µg/mL (≈ 0.267 µM); in data set [5], over 20 µg/mL; in the data set on Human alphaherpesvirus 2 [6], 0.61 µg/mL (≈ 2.33 µM); with Coxsackievirus B4 [7] it was over 200 µg/mL; in the data set on Human alphaherpesvirus 2 [8] it was 0.48 µg/mL (≈ 1.83 µM). For the same molecule, the EC50 in [9] was over 200 µg/mL; in the data set with Human betaherpesvirus 5 [10], 0.06 µg/mL (≈ 0.229 µM); in the data set with Human alphaherpesvirus 3 [11], 0.12 µg/mL (≈ 0.458 µM); in data set [13], over 200 µg/mL; in the data set with Punta Toro virus, over 200 µg/mL; in the data set on Coxsackievirus B4 [14] it was over 200 µg/mL. The concentration for a half-maximal effect (EC50) in the data set with Sindbis virus was over 200 µg/mL; in [16], over 200 µg/mL; in [17], over 200 µg/mL; in the data set with Human alphaherpesvirus 3 [19] it was 0.04 µg/mL (≈ 0.153 µM). For the same molecule, the MCC is over 200 µg/mL in the data set with HeLa, 200 µg/mL in [12] (setting [21]), 33 µg/mL with MOLT-3 (setting [22]) and over 100 µg/mL in the data set on HEL [18]. For the same molecule, the MCC at 72 h in data set [20] was over 200 µg/mL; in [4], 100 µg/mL. For the same molecule, in the data set on HEL [15] (setting [23]), the CC50 is over 100 µg/mL.

As to `CCCCCCCCCCCCCCCCOCCOP1(=O)CO[C@@H](Cn2cnc(N)nc2=O)CO1` (some centres undefined), the EC50 in the data set on Human respirovirus 3 was 16 µg/mL (≈ 30.2 µM); in data set [1] it was over 0.8 µg/mL; in data set [2] it was over 0.8 µg/mL; in the data set with Human betaherpesvirus 5 [3] it was 0.00038 µg/mL (≈ 0.000716 µM); in [5], over 4 µg/mL; with Human alphaherpesvirus 2 [6] it was 0.082 µg/mL (≈ 0.155 µM). The EC50 in the data set on Coxsackievirus B4 [7] was over 3.2 µg/mL; in the data set on Human alphaherpesvirus 2 [8] it was 0.004 µg/mL (≈ 0.00754 µM); in [9], over 3.2 µg/mL; with Human betaherpesvirus 5 [10] it was 0.00014 µg/mL (≈ 0.000264 µM); with Human alphaherpesvirus 3 [11], 0.0014 µg/mL (≈ 0.00264 µM); in the data set on Human adenovirus 2, under 0.512 µg/mL. Besides, the EC50 in data set [13] was 16 µg/mL (≈ 30.2 µM); with Punta Toro virus it was 16 µg/mL (≈ 30.2 µM); with Coxsackievirus B4 [14] it was 16 µg/mL (≈ 30.2 µM); with Sindbis virus, 16 µg/mL (≈ 30.2 µM); in data set [16], over 3.2 µg/mL; in data set [17] it was over 3.2 µg/mL. Besides, in the data set on Human alphaherpesvirus 3 [19], the EC50 amounted to 0.0008 µg/mL (≈ 0.00151 µM). The MCC is 16 µg/mL with HeLa, 1.6 µg/mL in data set [12], 0.56 µg/mL in the data set with MOLT-3 and 16 µg/mL in the data set with HEL [18]. The figures for the MCC at 72 h in [20] and in data set [4] were 80 µg/mL and 20 µg/mL, respectively. For the same molecule, the CC50 in the data set on CCRF-CEM amounted to 2 µg/mL (≈ 3.77 µM); in the data set with HEL [15] it was 6.4 µg/mL (≈ 12.1 µM).

As to `CC(C)(C)C(=O)OCOP1(=O)CO[C@@H](Cn2cnc(N)nc2=O)CO1` (some centres undefined), the EC50 is over 100 µg/mL with Human respirovirus 3; over 20 µg/mL in data set [1]; over 20 µg/mL in data set [2]; 0.061 µg/mL (≈ 0.162 µM) in the data set with Human betaherpesvirus 5 [3]; over 20 µg/mL in data set [5]; 0.32 µg/mL (≈ 0.85 µM) in the data set with Human alphaherpesvirus 2 [6]. For the same molecule, the EC50 with Coxsackievirus B4 [7] is over 20 µg/mL; in the data set with Human alphaherpesvirus 2 [8], 0.24 µg/mL (≈ 0.638 µM); in [9], over 20 µg/mL; with Human betaherpesvirus 5 [10], 0.067 µg/mL (≈ 0.178 µM); in the data set with Human alphaherpesvirus 3 [11] it was 0.11 µg/mL (≈ 0.292 µM); in the data set with Human adenovirus 2, 0.069 µg/mL (≈ 0.183 µM). Also, the EC50 was over 100 µg/mL in [13]; over 100 µg/mL in the data set with Punta Toro virus; over 100 µg/mL with Coxsackievirus B4 [14]; over 100 µg/mL with Sindbis virus; over 20 µg/mL in data set [16]; over 20 µg/mL in data set [17]. This molecule also had an EC50 in the data set with Human alphaherpesvirus 3 [19] of 0.02 µg/mL (≈ 0.0531 µM). Also, the MCC in the data set on HeLa is 100 µg/mL; in [12] (setting [21]), 4 µg/mL; in the data set with MOLT-3 (setting [22]), at least 4 µg/mL; with HEL [18] it was over 40 µg/mL. Moreover, the MCC at 72 h is over 100 µg/mL in data set [20] and 100 µg/mL in data set [4]. Further, the CC50 amounted to 18 µg/mL (≈ 47.8 µM) with CCRF-CEM and 14 µg/mL (≈ 37.2 µM) with HEL [15] (setting [23]).

Turning to `Nc1ncnc2c1ncn2C[C@H](O)CO` [(S)-DHPA], the EC50 in the data set on Human respirovirus 3 is over 200 µg/mL; in the data set on Coxsackievirus B4 [7] it was over 200 µg/mL; in data set [9], 120 µg/mL (≈ 574 µM); in data set [13] it was 200 µg/mL (≈ 956 µM); in the data set on Punta Toro virus it was over 200 µg/mL; in the data set with Coxsackievirus B4 [14], over 200 µg/mL. In addition, the EC50 (in the data set with Sindbis virus; in data set [17]) was over 200 µg/mL each time. Moreover, the MCC in the data set with HeLa is over 200 µg/mL. For the same molecule, the MCC at 72 h in data set [20] was over 200 µg/mL.
